Patent publication US20260061191A1, “Using Alternating Electric Fields to Increase Cell Membrane Permeability” (The Board of Trustees of the Leland Stanford Junior …, priority 2018, published 2026)
Blank lines part the entries; values can stand above or below the compound they belong to.

Assays:
[1] = test system: U87-MG cells on PCS-201 fibroblasts co-culture; assay: 5-ALA uptake (PpIX fluorescence), U87-MG GBM on PCS-201 fibroblast co-cultures; type: cell-based, human
U87-MG cells [2] = assay: 5-ALA uptake (PpIX fluorescence), single U87-MG culture; type: cell-based, human
Experimental: Experiments were performed to determine the effects of TTFields on uptake of 5-ALA (as measured by PpIX accumulation and its resultant fluorescence) in glioblastoma cells. Because it is difficult to distinguish the margin between tumor and normal cells using the present 5-ALA bioassay, the measurement of PpIX fluorescence was used to address this issue. Investigations were run to determine whether permeation of 5-ALA through the cellular membrane and into the glioblastoma cells could be increased with TTFields exposure. U87-MG cells were exposed or unexposed to TTFields, each for durations of 6-24 h.
All monovariant statistical comparisons between no TTFields vs. TTFields samples done by Student's t-test for n=3 experiments per time point.

U87-MG cells [3] = assay: Timing of permeability to 7-AAD after alternating electric field, flow cytometry; type: cell-based, human; details: 300 kHz, 1.62 V/cm RMS, 24 hours; sample incubated with 7-AAD while subjected to the field (added 15 minutes prior to cessation)
Experimental: FIG. 7D depicts the results of an experiment to test how quickly the permeability drops back down after cessation of the alternating electric fields. More specifically, 7-Aminoactinomycin D (7-AAD) is a fluorescent chemical compound with a strong affinity for DNA. […] 7-AAD was introduced into samples at five different times: 15 minutes prior to the cessation of the alternating electric field; immediately after cessation of the alternating electric field […]. In each case, the cells were incubated with 7-AAD for 30 minutes after introduction of the 7-AAD, followed by flow cytometry analysis of the percentage of cells with increased accumulation of the fluorescent 7-AAD for each of the different timings.

[4] = test system: MDA-MB-435 human melanoma cell line cells; assay: Permeability of cell membranes to 7-AAD, flow cytometry; type: cell-based
Experimental: After this 15 minute period, alternating electric field application was terminated and the cells were incubated at room temperature for an additional 15 minutes.
After this 24 hour period, the alternating electric fields were turned off for 15 minutes, after which the 7-AAD was added. After waiting an additional 15 minutes, the percentage of cells with increased accumulation of the fluorescent 7-AAD was determined using flow cytometry.

GBM39/Luc cells = assay: Drug sensitivity / synergy with TTFields; type: cell-based, human
U87-MG/GFP-Luc cells = assay: Drug sensitivity / synergy with TTFields; type: cell-based, human
GBM39 cells = assay: Drug sensitivity with TTFields; type: cell-based, human; details: TTFields for 3 days vs control without TTFields
glioblastoma patients = assay: Survival of glioblastoma patients treated with TTFields plus temozolomide; type: in vivo, human; details: TTFields plus temozolomide vs temozolomide alone, re-analysis of Ram et al.
Description: The treatment of glioblastoma (GBM) using alternating electric fields is a novel, validated therapy that has become an additional modality (after surgery chemoradiation and chemotherapy) for anti-cancer treatments. Intermediate frequency alternating electric fields (100-500 kHz) have been studied in detail. […] In the context of treating tumors, alternating electric fields at these frequencies are often referred to as “tumor treating fields” or “TTFields.”
Recurrence of GBM is inevitable and the median time to first recurrence despite standard therapy is approximately 7 months. […] TTFields compliance (≥75% vs. <75%) was an independent predictor of overall survival in the retrospective analysis of the full EF-14 trial dataset and the duration of use of TTFields was also found to affect overall survival. […] Namely, a correlation between the length of TTFields exposure and the duration of its effect on cell membrane permeability after cessation of TTFields was observed. At lengths of TTFields exposure of 0.5-3 h, the duration in BLI augmentation (compared to no TTFields conditions) lasted about 5 min. However, at TTFields exposures of 12-25 h, this difference in BLI between TTFields and no TTFields conditions lasted for more than 20 min.

U87-MG/eGFP-fLuc cells [5] = assay: Annexin-V-APC binding (early apoptosis), fluorescence microscopy; type: cell-based, human; details: 21 μM, TTFields-unexposed samples
Experimental: To test if the imposition of TTFields affects cell membrane properties, and thus membrane permeability, the effect of TTFields on the behavior of fluorescently tagged reagents that bind to the cellular membrane was determined. Initially, the impact of TTFields on the binding of Annexin-V-APC to the membrane of U87-MG/eGFP-fLuc cells was measured. Annexin-V-APC binding is a signature of early apoptosis which is characterized by ruffling of the membrane.

human glioblastoma cells = assay: Growth inhibition by TTFields in conjunction with Withaferin A; type: cell-based; details: TTFields treatment in conjunction with Withaferin A
Description: In this figure, 5-ALA=5-aminolevulinic acid; Ethidium D=ethidium bromide; and FITC=fluorescein isothiocyanate.

[6] = test system: human glioblastoma cells that have been modified to express luciferase
Experimental: U87-MG/eGFP-fLuc cells were seeded on Thermanox glass coverslips, allowed to settle and grow, and then subjected to either TTFields or no TTFields.
Bioluminescence imaging: For all bioluminescence work, we used genetically-modified GBM2, GBM39 and U87-MG whereby the glioblastoma cells were transfected with lentiviral vectors that expressed either firefly luciferase (fLuc for GBM39) or a fusion protein of GFP and firefly luciferase (GFP/fLuc for GBM2 and eGFP-fLuc for U87-MG) or a Renilla luciferase-Red Fluorescence protein fusion (RLuc-RL8 for KR158B).

[7] = test system: MDA-MB-435 cells, doxorubicin resistant; assay: Intracellular accumulation of doxorubicin under alternating electric field; details: 150 kHz, 1.62 V/cm, 23 hours, then 10 μM doxorubicin for one hour with field; vs no field
Experimental: (§1) In this experiment, both wild type and doxorubicin resistant variants of MDA-MB-435 cells were treated with an alternating electric field at 150 kHz with a field strength of 1.62 V/cm for 23 hours. After this 23 hour period, doxorubicin at a concentration of 10 μM was added and incubated for one hour, during which time the alternating electric fields was continued. The intracellular accumulation of doxorubicin was then measured.

[8] = test system: MDA-MB-435 cells, wild type; assay: as above; details: 150 kHz, 1.62 V/cm, 23 hours, then 10 μM doxorubicin for one hour with field; vs no field
Experimental: as §1

MDA-MB-235 cells = assay: Drug sensitivity / synergy with TTFields; type: cell-based
MES-SA cells = assay: Intracellular accumulation of doxorubicin under 150 kHz alternating electric field; details: 1.62 V/cm RMS, 24 hours, 10 μM doxorubicin for the last hour
Experimental: In this experiment, MES-SA cells were treated with an alternating electric field at 150 kHz with a field strength of 1.62 V/cm RMS for 24 hours. After the first 23 hours, doxorubicin at a concentration of 10 μM was added and incubated for one hour during which time the alternating electric fields was continued (to complete the 24 hour period). The intracellular accumulation of doxorubicin was then measured.

U87-MG/eGFP-fLuc cells [9] = assay: Ethidium D uptake under TTFields; type: cell-based, human; details: 200 kHz TTFields vs no TTFields, p<0.0001
Description: Ethidium D permeates through both the plasma membrane and the nuclear membrane and intercalates into genomic DNA.

[10] = target: T1, purified firefly luciferase (Photinus pyralis, UniProt P08659); assay: Activity of purified firefly luciferase exposed to TTFields; type: biochemical; details: 200 kHz TTFields, 60 minutes after initiation of TTFields
T1 construct: purchased Sigma Aldrich Inc (St. Louis, MO) SRE0045-2MG
T1 sequence (P08659 whole entry): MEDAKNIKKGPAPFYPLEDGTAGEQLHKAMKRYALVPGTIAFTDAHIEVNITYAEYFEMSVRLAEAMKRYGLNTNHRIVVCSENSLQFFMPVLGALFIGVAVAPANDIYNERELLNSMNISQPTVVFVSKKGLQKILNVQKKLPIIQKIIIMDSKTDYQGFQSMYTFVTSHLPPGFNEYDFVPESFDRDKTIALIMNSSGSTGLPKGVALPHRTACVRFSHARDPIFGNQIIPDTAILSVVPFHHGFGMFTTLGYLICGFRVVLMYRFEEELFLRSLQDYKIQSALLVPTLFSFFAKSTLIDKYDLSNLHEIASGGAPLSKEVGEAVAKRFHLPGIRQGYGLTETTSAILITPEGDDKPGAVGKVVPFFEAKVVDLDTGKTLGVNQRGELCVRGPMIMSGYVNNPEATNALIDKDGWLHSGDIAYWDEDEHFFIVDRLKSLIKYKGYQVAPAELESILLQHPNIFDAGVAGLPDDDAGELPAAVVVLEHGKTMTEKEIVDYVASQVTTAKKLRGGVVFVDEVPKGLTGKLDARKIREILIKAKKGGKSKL

[11] = TTFields for 3 days vs control without TTFields

5-ALA uptake in the GBM cells compared to the fibroblast cells (ratio of PpIX fluorescence intensity) ([1]; TTFields exposure (by 24 h, p=0.043) vs no TTFields): significantly increased | rate of PpIX fluorescence intensity increase ([1]; TTFields-exposed vs unexposed co-cultures, 2, 6 and 24 h, p<0.001): significantly augmented | uptake of 5-ALA (PpIX fluorescence) (U87-MG cells [2]; 6 h of TTFields exposure vs no TTFields, p=0.047): significantly increased uptake | uptake of 5-ALA (PpIX fluorescence) (U87-MG cells [2]; 24 h of TTFields exposure vs no TTFields, p=0.011): increase was maintained
Compound: NCC(=O)CCC(=O)O [5-ALA, 5-aminolevulinic acid]

Compound: Cc1c2oc3c(C)c(N)cc(C(=O)N[C@@H]4C(=O)N[C@H](C(C)C)C(=O)N5CCC[C@H]5C(=O)N(C)CC(=O)N(C)[C@@H](C(C)C)C(=O)O[C@@H]4C)c3nc-2c(C(=O)N[C@@H]2C(=O)N[C@H](C(C)C)C(=O)N3CCC[C@H]3C(=O)N(C)CC(=O)N(C)[C@@H](C(C)C)C(=O)O[C@@H]2C)c(N)c1=O [7-AAD, 7-Aminoactinomycin D]
percentage of cells with increased accumulation of 7-AAD (U87-MG cells [3]): significant increase in accumulation | percentage of cells with increased accumulation of 7-AAD ([4]; 150 kHz, 1.62 V/cm, 24 hours, 7-AAD added 15 minutes after fields were turned off): ~20% | percentage of cells with increased accumulation of 7-AAD ([4]; 150 kHz, 1.62 V/cm, 24 hours, 7-AAD added for the last 15 minutes of the field): ~66% | percentage of cells with increased accumulation of 7-AAD ([4]; control, same conditions, alternating electric fields not applied): less than 5%

Compound: CCc1c2c(nc3ccc(OC(=O)N4CCC(N5CCCCC5)CC4)cc13)-c1cc3c(c(=O)n1C2)COC(=O)[C@]3(O)CC [Irinotecan]
synergy of the combination with TTFields (GBM39/Luc cells): synergy was found | sensitivity of cells to various concentrations of drug (GBM39/Luc cells; [11]): improves the sensitivity

Compound: O=NN(CCCl)C(=O)NC1CCCCC1 [Lomustine]
sensitivity of cells to various concentrations of drug (U87-MG/GFP-Luc cells; [11]): improves the sensitivity | sensitivity of cells to various concentrations of drug (pcGBM2/GFP-Luc cells; [11]): improves the sensitivity | sensitivity of cells to various concentrations of drug (GBM39 cells): improves the sensitivity

Compound: Cn1nnc2c(C(N)=O)ncn2c1=O [Temozolomide]
percent increase in overall survival (glioblastoma patients; after 1 year of TTFields exposure): 32% | percent increase in overall survival (glioblastoma patients; after 5 years of TTFields exposure): 551%

Compound: CC1=C(CO)C(=O)O[C@@H]([C@@H](C)[C@H]2CC[C@H]3[C@@H]4C[C@H]5O[C@]56[C@@H](O)C=CC(=O)[C@]6(C)[C@H]4CC[C@]23C)C1 [Withaferin A]
synergy of the combination with TTFields (U87-MG/GFP-Luc cells): synergy was found | Annexin-V-APC binding (positive control for apoptosis) (U87-MG/eGFP-fLuc cells [5]): could be visualized | synergy of the combination with TTFields (pcGBM2/GFP-Luc cells): synergy was found | growth of human glioblastoma cells (human glioblastoma cells): synergistically inhibited the growth | synergy of the combination with TTFields (GBM39/Luc cells): synergy was found

permeation of the substrates through the plasma membrane (greater bioluminescence) [6]: increased permeation
Compound: Oc1ccc(Cc2nc3c(Cc4ccccc4)nc(-c4ccc(O)cc4)cn3c2O)cc1 [coelenterazine]

intracellular accumulation of doxorubicin [7]: increased | intracellular accumulation of doxorubicin [8]: increased | increase of intracellular accumulation of doxorubicin (MES-SA cells): more than 2 X
Compound: COc1cccc2c1C(=O)c1c(O)c3c(c(O)c1C2=O)C[C@@](O)(C(=O)CO)C[C@@H]3O[C@H]1C[C@H](N)[C@H](O)[C@H](C)O1 [doxorubicin]
synergy of the combination with TTFields (MDA-MB-235 cells): Evidence of synergy | sensitivity of cells to various concentrations of drug (MDA-MB-235 cells; [11]): improves the sensitivity

Compound: CC[n+]1c(-c2ccccc2)c2cc(N)ccc2c2ccc(N)cc21 [ethidium D, ethidium bromide]
ethidium D uptake (U87-MG/eGFP-fLuc cells [9]): significantly increased

Compound: firefly luciferase: purified firefly luciferase (SRE0045-2MG) purchased from Sigma Aldrich
loss in enzymatic activity [10]: > 1000 fold
